Where two headings read alike, the source gives them in different places. Peptide text beside a SMILES is read from it. * marks the point of attachment. Cbz = O=C(OCc1ccccc1)*
Legend:
c-MYC, RPL15, RPL3 = assay: Endogenous c-MYC, RPL15 and RPL3 proteins in A2058 cells; assay type: cell-based, human; conditions: 20 nM AZD6244 co-treated with 500 nM MG132
Method: (A) GFP and GFP-GR plasmids were co-transfected into HEK293T cells followed by treatments with 20 nM AZD6244, 20 μM U0126, or 200 nM 17-DMAG for 4 hr. (B) GFP-GR plasmids were co-transfected into HEK293T cells with HA-Ub-K48 plasmids, which encode a mutant ubiquitin that can be conjugated to protein substrates only via lysine 48. Following treatments with 20 nM AZD6244 or 200 nM 17-DMAG for 4 hr, GFP-GR proteins were precipitated and ubiquitination was detected using anti-HA antibodies. (C) Denatured firefly luciferases were incubated with lysates of A2058 cells treated with DMSO or 20 nM AZD6244 (mean±SD, n=4, ANOVA). (D) A2058 cells were treated with 20 nM AZD6244, and ubiquitinated proteins were detected in both detergent-soluble and -insoluble fractions using Lys48-specific ubiquitin antibodies. (E) A2058 cells stably expressing LacZ or HSF1^S326D were treated with 20 nM AZD6244 for 8 hr. (F) C57BL/6J mice were i.p. injected with DMSO or AZD6244 three times a week for 2 weeks. S: spleen; K: kidney; L: liver. (G) Experimental procedures of MS-based quantitation of ubiquitinated peptides, two technical replicates per treatment. […] (Q) Endogenous RPL15 and RPL3 proteins were detected in A2058 cells treated with 20 nM AZD6244 alone or co-treated with 500 nM MG132. (R) Endogenous RPL15 and RPL3 proteins were detected in A2058 cells stably expressing LacZ or HSF1^S326D with AZD6244 treatment. […]

[1] = test system: V5-TOR1AIP2, V5-RPL3, V5-RPL15; assay: Levels and ubiquitination of V5-tagged proteins in HEK293T cells; assay type: cell-based; conditions: 500 nM MG132 co-treated with 20 nM AZD6244, 8 hr
[2] = test system: ERK complexes precipitated from HEK293T cells; assay: In vitro kinase assay with immunoprecipitated ERK complexes; assay type: biochemical
Method: (§1) Co-expressed GFP proteins served as internal controls. […] See also FIG. 10.
(§2) Samples were boiled for 5 min to stop reactions.

Hsp genes = assay: qRT-PCR of heat-shock-induced Hsp mRNA in NIH3T3 cells; assay type: cell-based, mouse; conditions: 20 μM U0126 or 20 nM AZD6244 for 3 hr, then HS and 4-hr recovery
Method: (A) NIH3T3 cells were treated with HS at 43° C. for 30 min, 10 μM tubastatin A for 5 hr, 40 μM VER155008 for 1 hr, 500 nM MG132 for 1 hr, 200 nM 17-DMAG for 1 hr, and 2.5 mM azetidine for 15 min (B) The dual ELK1 reporter system, comprising a serum response element (SRE)-driven secreted embryonic alkaline phosphatase (SEAP) plasmid and a CMV-driven Gaussia luciferase (GLuc) plasmid, was transfected into HEK293T cells. After 24 hr, cells were treatments as in (A) and recovered overnight before measuring reporter activities (mean±SD, n=6, ANOVA). (C and D) NIH3T3 cells were treated with 20 μM U0126 or 20 nM AZD6244 for 3 hr followed by HS and 4-hr recovery. mRNA levels were quantitated by qRT-PCR (mean±SD, n=3, Student's t-test). (E) Immediately after HS, nuclear proteins of NIH3T3 cells treated as in (C) were extracted to measure HSF1-DNA binding by an ELISA-based assay (mean±SD, n=3, ANOVA). […]
Total RNAs were extracted using RNA STAT-60 reagent (Tel-Test, Inc.), and RNAs were used for reverse transcription using a Verso cDNA Synthesis kit (Thermo Fisher Scientific). Equal amounts of cDNA were used for quantitative PCR reaction using a DyNAmo SYBR Green qPCR kit (Thermo Fisher Scientific). Signals were detected by an ABI 7500 Real-Time PCR System (Applied Biosystems). […]

MEK1 = MEK1 (Homo sapiens, UniProt Q02750); conditions: 100 ng GST-MEK1, 400 ng His-HSF1, RT
MEK1, sequence (Q02750 whole entry): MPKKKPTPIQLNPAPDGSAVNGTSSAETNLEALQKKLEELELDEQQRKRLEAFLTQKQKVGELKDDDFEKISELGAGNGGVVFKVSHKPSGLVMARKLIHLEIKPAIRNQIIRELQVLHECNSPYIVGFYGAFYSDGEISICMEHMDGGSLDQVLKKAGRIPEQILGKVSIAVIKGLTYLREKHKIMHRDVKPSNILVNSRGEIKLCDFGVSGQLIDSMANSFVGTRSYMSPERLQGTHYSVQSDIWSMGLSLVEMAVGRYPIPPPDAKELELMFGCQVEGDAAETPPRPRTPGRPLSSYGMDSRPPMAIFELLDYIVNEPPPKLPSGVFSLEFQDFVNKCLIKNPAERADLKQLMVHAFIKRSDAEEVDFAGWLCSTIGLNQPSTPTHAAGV
Method: as §1, §2

HSF1 [3] = assay: ELISA-based HSF1-DNA binding assay, NIH3T3 nuclear proteins; assay type: cell-based, mouse; conditions: NIH3T3, immediately after HS; 20 μM U0126 or 20 nM AZD6244 for 3 hr
Method: (§3) (A) NIH3T3 cells were treated with HS at 43° C. for 30 min, 10 μM tubastatin A for 5 hr, 40 μM VER155008 for 1 hr, 500 nM MG132 for 1 hr, 200 nM 17-DMAG for 1 hr, and 2.5 mM azetidine for 15 min (B) The dual ELK1 reporter system, comprising a serum response element (SRE)-driven secreted embryonic alkaline phosphatase (SEAP) plasmid and a CMV-driven Gaussia luciferase (GLuc) plasmid, was transfected into HEK293T cells. After 24 hr, cells were treatments as in (A) and recovered overnight before measuring reporter activities (mean±SD, n=6, ANOVA). (C and D) NIH3T3 cells were treated with 20 μM U0126 or 20 nM AZD6244 for 3 hr followed by HS and 4-hr recovery. mRNA levels were quantitated by qRT-PCR (mean±SD, n=3, Student's t-test). (E) Immediately after HS, nuclear proteins of NIH3T3 cells treated as in (C) were extracted to measure HSF1-DNA binding by an ELISA-based assay (mean±SD, n=3, ANOVA). (F) HEK293T cells were transfected with dual HSF1 reporter plasmids, a heat-shock element (HSE)-driven SEAP plasmid and a CMV-GLuc plasmid. […] (G) HEK293T cells were treated with different inhibitors overnight. […] After 24 hr, cells were heat shocked at 43° C. for 30 min followed by overnight recovery (mean±SD, n=3, ANOVA). (L)-(O) HEK293T cells were transfected with siRNAs for 48 hr followed by transfection with dual HSF1 reporter plasmids for 24 hr before HS (mean±SD, n=6, ANOVA). […]

HSF1 Ser326 [4] = assay: HSF1 Ser326 phosphorylation by immunoblotting in HEK293T cells; assay type: cell-based; conditions: overnight, 20 μM U0126, 20 nM AZD6244, 1 μM FR180204 or 100 nM Sch772984
Method: This figure is related to FIG. 3. (A) Validation of phospho-HSF1 Ser326 antibodies. […] (B) MEK blockade impairs HSF1 Ser326 phosphorylation. […] (D-E) S326A mutation impairs HSF1 nuclear translocation. […] (F) Acute MEK depletion diminishes HSF1 proteins. […] HSF1 proteins were detected by immunoblotting. (G) ERK-mediated HSF1 Ser307 phosphorylation depends on MEK. […] Levels of phosphor-HSF1 Ser307 were measured by immunoblotting. (H) HSF1 Ser326 phosphorylation inhibits Ser307 phosphorylation.

HSF1 [5] = assay: Dual HSF1 reporter assay (HSE-SEAP / CMV-GLuc) in HEK293T cells; assay type: cell-based; conditions: 20 μM U0126, 20 nM AZD6244, 1 μM FR180204 or 100 nM Sch772984
Method: as §3, with “ANOVA).” for “ANOVA). (L)-(O) HEK293T cells were transfected with siRNAs for 48 hr followed by transfection with dual HSF1 reporter plasmids for 24 hr before HS (mean±SD, n=6, ANOVA).”
FIGS. 8A-H illustrate that MEK and ERK inversely regulate the PSR. […] Cell viability was measured by a Guava EasyCyte™ flow cytometer using Guava ViaCount™ reagents (mean±SD, n=5, Student's t test). […] Levels of ERK1 and ERK2 mRNAs were quantitated in HEK293T cells transfected with ERK1-targeting siRNAs by qRT-PCR (mean±SD, n=3, ANOVA). […] Levels of ERK2 and ERK1 mRNAs were quantitated in HEK293T cells transfected with ERK2-targeting siRNAs by qRT-PCR (mean±SD, n=3, ANOVA).
Plasmids were transfected with TurboFect transfection reagent (Thermo Scientific). SEAP and luciferase activities in culture supernatants were quantitated using a Ziva® Ultra SEAP Plus Detection Kit (Jaden BioScience) and a Gaussia Luciferase Glow Assay Kit (Thermo Scientific), respectively. Luminescence signals were measured by a VICTORS Multilabel plate reader (PerkinElmer).

HSF1 Ser326 [6] = conditions: NIH3T3; 20 μM U0126 for 3 hrs, then heat shock 43° C. 30 mins
Method: NIH3T3 cells were treated with 20 μM U0126 for 3 hrs followed by heat shock at 43° C. for 30 mins HSF1 Ser326 phosphorylation was detected by immunoblotting.
Whole-cell protein extracts were prepared in cold cell-lysis buffer (100 mM NaCl, 30 mM Tris-HCl pH 7.6, 1% Triton X-100, 30 mM NaF, 1 mM EDTA, 1 mM sodium orthovanadate, and Halt™ protease inhibitor cocktail from Thermo Scientific). Proteins were separated on SDS-PAGE gels and transferred to nitrocellulose membranes. Primary antibodies were applied in wash buffer overnight at 4° C. Peroxidase-conjugated secondary antibodies were applied at room temperature for 1 hr, and signals were visualized by SuperSignal West chemiluminescent substrate (Thermo Fisher Scientific), followed by exposure to films.

Structure (SMILES): CC(C)C[C@@H](C=O)NC(=O)[C@H](CC(C)C)NC(=O)[C@H](CC(C)C)NC(=O)OCc1ccccc1 [MG132] (Cbz-Leu-Leu-Leu-aldehyde)
- depletions of endogenous RPL15 and RPL3 by AZD6244 (c-MYC, RPL15, RPL3): prevented
- V5-RPL15 depletion by AZD6244 [1]: prevented

Structure (SMILES): N#CC(=C(/N)Sc1ccccc1N)/C(C#N)=C(\N)Sc1ccccc1N [U0126]
- phosphorylation of recombinant ERK1 proteins by precipitated ERK complexes ([2]; 400 ng GST-ERK1): blocked
- HSF1 Ser326 phosphorylation by precipitated ERK complexes ([2]; 400 ng His-HSF1): blocked
- HS-induced transcription of Hsp genes (Hsp genes): impeded
- HSF1 Ser326 phosphorylation by recombinant MEK1 (MEK1): blocked
- DNA-binding capacity of HSF1 (HSF1 [3]): impaired
- HSF1 Ser326 phosphorylation (HSF1 Ser326 [4]): impairs
- transcriptional activation of HSF1 (HSF1 [5]): impaired
- HSF1 Ser326 phosphorylation (HSF1 Ser326 [6]): impaired
